Measurements as given in US8815882B2, “Pyrazole aminopyrimidine derivatives as LRRK2 modulators” (Genentech, Inc., priority 2010, dated 2014).

Each molecule was assayed against T1, LRRK2 (Homo sapiens, UniProt Q5S007, G2019S) (assay: In Vitro LRRK2 Assay (LabChip 3000, fluorescently-labeled peptide substrate, ATP)). Details: Table 10; LRRK2 Ki (micromolar); read-out: LRRK2 Ki (KI).
T1 construct: purchased Invitrogen PV4882 (lot 567054A)
Format: biochemical
In short: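 Read-out was LabChip capillary electrophoresis, resolving phospho- from non-phospho-peptide by fluorescence intensity. The kinase reaction combined enzyme, ATP, test compound and labeled peptide (4 μM working dilution) for 2 h in darkness before stop solution. Values were reported as Ki, from a tight-binding model with Et, S and Km, or as IC50 or percent inhibition.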

T1 sequence (Q5S007 whole entry G2019S): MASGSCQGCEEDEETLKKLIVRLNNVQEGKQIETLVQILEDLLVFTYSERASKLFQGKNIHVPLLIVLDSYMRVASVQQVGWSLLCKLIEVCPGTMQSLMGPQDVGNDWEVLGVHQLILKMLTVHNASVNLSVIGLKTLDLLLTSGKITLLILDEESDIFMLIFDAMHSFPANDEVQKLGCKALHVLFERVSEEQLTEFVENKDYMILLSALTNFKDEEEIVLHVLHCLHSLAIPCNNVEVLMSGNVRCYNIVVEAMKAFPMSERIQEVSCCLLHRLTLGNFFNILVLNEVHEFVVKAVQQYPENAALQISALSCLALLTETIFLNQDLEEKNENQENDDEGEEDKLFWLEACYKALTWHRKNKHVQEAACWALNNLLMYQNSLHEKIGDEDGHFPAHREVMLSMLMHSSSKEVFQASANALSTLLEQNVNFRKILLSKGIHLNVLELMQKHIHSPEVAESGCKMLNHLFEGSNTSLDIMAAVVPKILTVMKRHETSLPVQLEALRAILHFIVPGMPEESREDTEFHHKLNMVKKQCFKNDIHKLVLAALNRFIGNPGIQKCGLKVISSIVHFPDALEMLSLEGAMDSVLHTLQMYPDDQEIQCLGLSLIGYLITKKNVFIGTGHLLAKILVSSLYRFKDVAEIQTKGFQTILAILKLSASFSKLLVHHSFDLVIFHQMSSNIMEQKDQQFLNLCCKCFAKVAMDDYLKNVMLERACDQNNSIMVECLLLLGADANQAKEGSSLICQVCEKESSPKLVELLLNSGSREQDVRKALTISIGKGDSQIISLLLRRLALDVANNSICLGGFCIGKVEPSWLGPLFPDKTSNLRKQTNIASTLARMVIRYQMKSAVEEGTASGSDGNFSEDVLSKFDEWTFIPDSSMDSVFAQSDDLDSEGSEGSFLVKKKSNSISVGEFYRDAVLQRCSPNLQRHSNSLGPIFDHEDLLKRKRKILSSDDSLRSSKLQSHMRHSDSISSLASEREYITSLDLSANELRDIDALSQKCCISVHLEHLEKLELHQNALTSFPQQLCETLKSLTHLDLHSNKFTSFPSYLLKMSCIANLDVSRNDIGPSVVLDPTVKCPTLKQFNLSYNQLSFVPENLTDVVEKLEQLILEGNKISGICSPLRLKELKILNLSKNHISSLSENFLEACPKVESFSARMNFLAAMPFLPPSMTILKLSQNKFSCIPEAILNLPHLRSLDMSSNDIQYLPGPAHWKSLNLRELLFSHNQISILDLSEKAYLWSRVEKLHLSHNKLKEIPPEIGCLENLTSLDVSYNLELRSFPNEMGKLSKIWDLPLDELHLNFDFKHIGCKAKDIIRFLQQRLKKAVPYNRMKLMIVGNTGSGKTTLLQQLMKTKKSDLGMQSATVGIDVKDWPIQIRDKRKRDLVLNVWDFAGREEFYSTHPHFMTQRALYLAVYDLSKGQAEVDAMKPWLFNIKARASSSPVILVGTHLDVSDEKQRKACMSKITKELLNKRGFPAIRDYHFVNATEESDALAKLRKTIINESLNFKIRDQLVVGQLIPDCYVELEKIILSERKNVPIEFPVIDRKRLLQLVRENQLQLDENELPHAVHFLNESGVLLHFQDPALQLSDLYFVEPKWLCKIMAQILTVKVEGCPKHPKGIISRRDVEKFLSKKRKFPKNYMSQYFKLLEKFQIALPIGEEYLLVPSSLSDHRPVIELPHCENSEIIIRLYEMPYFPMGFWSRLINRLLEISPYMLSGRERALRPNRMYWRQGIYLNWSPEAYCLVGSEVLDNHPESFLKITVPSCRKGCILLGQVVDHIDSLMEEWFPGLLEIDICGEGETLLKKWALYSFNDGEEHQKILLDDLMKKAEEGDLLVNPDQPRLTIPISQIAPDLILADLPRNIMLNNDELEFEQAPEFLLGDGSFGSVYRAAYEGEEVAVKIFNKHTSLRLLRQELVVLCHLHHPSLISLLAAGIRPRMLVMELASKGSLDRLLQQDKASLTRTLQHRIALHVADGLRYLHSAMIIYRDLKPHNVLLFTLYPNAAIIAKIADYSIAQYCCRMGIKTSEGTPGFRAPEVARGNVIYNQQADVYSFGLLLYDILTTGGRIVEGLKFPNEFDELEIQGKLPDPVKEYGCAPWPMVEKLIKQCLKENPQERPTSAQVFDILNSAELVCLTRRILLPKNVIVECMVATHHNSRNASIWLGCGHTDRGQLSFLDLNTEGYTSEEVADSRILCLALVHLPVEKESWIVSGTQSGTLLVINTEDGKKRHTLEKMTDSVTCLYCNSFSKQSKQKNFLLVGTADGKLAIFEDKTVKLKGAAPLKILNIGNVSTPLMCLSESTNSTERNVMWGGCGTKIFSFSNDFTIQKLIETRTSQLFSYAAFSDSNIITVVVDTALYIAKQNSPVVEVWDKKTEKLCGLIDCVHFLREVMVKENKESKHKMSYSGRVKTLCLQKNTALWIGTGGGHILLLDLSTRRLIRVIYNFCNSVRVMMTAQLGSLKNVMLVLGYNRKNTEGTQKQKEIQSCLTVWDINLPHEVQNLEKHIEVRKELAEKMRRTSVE

SMILES | Ki [nM]
CNc1nc(Nc2cnn(C3(C#N)CCC3)c2C)ncc1C(F)(F)F [Example 446, 1-[5-Methyl-4-(4-methylamino-5-trifluoromethyl-pyrimidin-2-ylamino)-pyrazol-1-yl]-cyclobutane-carbonitrile] | 2.4
CNc1nc(Nc2cnn(C(C)(C)C(=O)NC(C)(C)C)c2C)ncc1C(F)(F)F [Example 447, N-tert-Butyl-2-[5-methyl-4-(4-methylamino-5-trifluoromethyl-pyrimidin-2-ylamino)-pyrazol-1-yl]-isobutyramide] | 67
CCNc1nc(Nc2cnn(C(C)(C)C(=O)NC)c2C)ncc1C(F)(F)F [Example 448, 2-[4-(4-Ethylamino-5-trifluoromethyl-pyrimidin-2-ylamino)-5-methyl-pyrazol-1-yl]-N-methyl-isobutyramide] | 15.3
CNC(=O)C(C)(C)n1cc(Nc2ncc(C(F)(F)F)c(NC3CC3)n2)c(C)n1 [Example 449, 2-[4-(4-Cyclopropylamino-5-trifluoromethyl-pyrimidin-2-ylamino)-3-methyl-pyrazol-1-yl]-N-methyl-isobutyramide] | 1.3

Results, then the molecule that gave them:

Ki [nM] | SMILES
7.1 | CNC(=O)C(C)(C)n1ncc(Nc2ncc(C(F)(F)F)c(NC3CC3)n2)c1C [Example 450, 2-[4-(4-Cyclopropylamino-5-trifluoromethyl-pyrimidin-2-ylamino)-5-methyl-pyrazol-1-yl]-N-methyl-isobutyramide]
0.3 | CCNc1nc(Nc2cn(C(C)(C)C#N)nc2C)ncc1C(F)(F)F [Example 451, 2-[4-(4-Ethylamino-5-trifluoromethyl-pyrimidin-2-ylamino)-3-methyl-pyrazol-1-yl]-2-methyl-propionitrile]
9.2 | CCNc1nc(Nc2cn(C(C)(C)C(=O)NC)nc2C)ncc1C(F)(F)F [Example 453, 2-[4-(4-Ethylamino-5-trifluoromethyl-pyrimidin-2-ylamino)-3-methyl-pyrazol-1-yl]-N-methyl-isobutyramide]
